Reference: patent publication US10620214B2, “Chloroalkane penetration method for quantifying access of a molecule into a cell” (TRUSTEES OF TUFTS COLLEGE, priority 2016, dated 2020)

System: HaloEnzyme-GFP-expressing HeLa cell line
Test: Chloroalkane Penetration Assay (CAPA), cytosolic access
Assay type: cell-based
Text: FIG. 1A provides a schematic showing the experimental procedure of CAPA, which uses a HaloEnzyme-GFP-expressing HeLa cell line. […] For CAPA, cells are pre-treated with vehicle or peptide, washed, and chased with HTag-TAMRA. Cells treated with cell-penetrant molecules have had their HaloEnzyme blocked, thus preventing the HTag-TAMRA from covalently labeling the cells. In this schematic, the molecule of interest is a peptide.
FIG. 1C provides a graph showing the dose-dependent response curve of HTag-TAMRA signal after pre-incubation with different concentrations of HTag-cTMP, HTag-DD5o, and the negatively charged, linear variant HTag-DD5-neg. Data was normalized using the values obtained for vehicle (0% HTag-TAMRA signal inhibition) and for vehicle with no HTag-TAMRA added (100% signal inhibition). Points are means from three independent experiments and error bars show standard deviation.
The CAPA method uses a cell line that stably expresses a cytosolically-oriented protein as a fusion with GFP and Haloenzyme. Haloenzyme is a modified bacterial chloroalkane dehalogenase that covalently labels itself with the small, otherwise inert Haloligand functional group. If an exogenously added molecule bearing the Haloligand (a small chloroalkane) reaches the cytosol, it reacts exclusively with the Haloenzyme and blocks its active site. Following this incubation period, the amount of unreacted Haloenzyme was measured by chasing with a Haloligand-bearing dye (here, Htag-TAMRA). The relative amount of red cellular fluorescence after this chase was then quantified by flow cytometry. The red signal reported directly on the amount of free Haloenzyme, which is inversely proportional to the degree to which the added molecule accessed the cytoplasm during the incubation period.
Halo-GFP-Mitochondrial targeted (Mito.)+mCherry-dihydrofolate reductase (DHFR) HeLa cells were obtained from the Chenoweth Lab as described by (Ballister et al., Nat. Commun. 2014. 5, 1-9), which is incorporated herein by reference. The expression vector used for the incorporation of GFP-Haloenzyme is shown at FIG. 3. Cells were cultured using DMEM+10% FBS+1% Pen/Strep+1 μg/mL puromycin. For experiments, cells were seeded in a 24-well plate the day before at 1.0×10^5 cells/well. Materials for cell culture were purchased from Thermo Scientific.
Cells were rinsed 1× with PBS, then treated with peptides in acidified Opti-MEM (0.15% 6N HCl) for 4 hours. Media was aspirated and cells were washed for 30 min with phenol red-free DMEM+10% FBS+1% pen/strep. Cells were chased with 5 μM HTag-TAMRA (Promega) in phenol red-free DMEM+10% FBS+1% pen/strep for 30 min. Cells were washed for 15 min with phenol red-free DMEM+10% FBS+1% pen/strep. Cells were rinsed once with phosphate buffered saline (PBS), then trypsinized and transferred to 1.5 mL Eppendorf tubes. Cells were pelleted and washed twice with PBS. Cell pellet was resuspended in 250 μL of PBS and 200 μL were transferred to 96-well plate for flow cytometry analysis. Data was gated for live cells measuring 10,000 cells per sample. Mean fluorescence intensity was obtained in the Yellow channel for HTag-TAMRA, and data was normalized. Background yellow fluorescence was observed both by flow cytometry and microscopy due to the constituent expression of mCherry-DHFR, but the signal observed for HTag-TAMRA-treated cells was 10-fold higher than background.

[1] = 50 μM inhibitor for 1 hr, then biomolecule 4 hr at 37° C., FIG. 5D

effect of chlorpromazine on cytosolic penetration [1]	time course of cytosolic penetration (FIG. 5A)	SMILES	effect of EIPA on cytosolic penetration [1]	cytosolic penetration at 37° C. versus 4° C.
no effect	time-dependent cytosolic penetration	N[C@@H](Cc1c[nH]c2ccccc12)C(=O)O [Trp]	no significant reduction in cytosolic penetration	–
–	–	N=C(N)NCCC[C@H](NC(=O)[C@H](CCCNC(=N)N)NC(=O)[C@H](CCCNC(=N)N)NC(=O)[C@H](CCCNC(=N)N)NC(=O)[C@H](CCCNC(=N)N)NC(=O)[C@H](CCCNC(=N)N)NC(=O)[C@H](CCCNC(=N)N)NC(=O)[C@H](CCCNC(=N)N)NC(=O)[C@H](CCCNC(=N)N)NC(=O)CCC(=O)NCCOCCOCCCCCCCl)C(N)=O [Arg9]	no significant reduction in cytosolic penetration	significantly greater at 37 °C compared to 4 °C
